Data on five compounds can be found in article PMC2999880 (Neuropharmacology, 2009).

Like-named read-outs stand apart in the source and are kept apart here.

Data set [1] concerns the target α4β2 nicotinic receptors stably transfected in SH-EP1 cells (Homo sapiens, UniProt P17787+P43681). Put plainly: 86Rb+ efflux in α4β2/SH-EP1 cells. Conditions: for extent of inhibition of nicotine-evoked 86Rb+ efflux: 10 μM nicotine; for extent of inhibition of TC-1827-evoked 86Rb+ efflux: 100 μM TC-1827; for effect on basal 86Rb+ efflux: compound alone, no agonist (data not shown). In kind it is cell-based.

A further data set addresses rat α7 NNRs (Rattus norvegicus, UniProt Q05941). Put plainly: ACh-evoked currents. In kind it is cell-based. The conditions noted are these: for pseudo-Hill slope (nH): variable slope sigmoid fit of inhibition of 60 μM ACh-evoked currents.
The next data set concerns the target α7 NNRs (Rattus norvegicus, UniProt Q05941). Put plainly: Epibatidine-evoked [3H]-norepinephrine release from rat hippocampal slices. It counts as cell-based.
Data set [2] deals with recombinant α4β2 NNRs expressed in SH-EP1 cells (Homo sapiens, UniProt P17787+P43681). Put plainly: [3H]-nicotine binding to recombinant α4β2 NNRs in SH-EP1 cell membranes. The conditions noted are these: 5 nM [3H]-nicotine, test compound up to 100 μM.
Data set [3] is described as follows: Maximum plasma concentrations achieved in clinical studies. It counts as in vivo, human. The conditions noted are these: calculated from reported ng/mL and molecular weight.
The target in data set [4] is presynaptic naturally-expressed α4β2-containing nicotinic receptors (Rattus norvegicus, UniProt P09483+P12390). Put plainly: Nicotine-evoked [3H]-dopamine release from rat striatal synaptosomes. In kind it is biochemical. Conditions: read-out: DA Release IC50, 10 μM nicotine-evoked [3H]-dopamine release, mean (95% CI).
The target of data set [5] is α7 NNR binding sites in rat hippocampal preparations (Rattus norvegicus, UniProt Q05941). Put plainly: [3H]-methyllycaconitine competition binding to rat hippocampal membranes. The conditions noted are these: 5 nM [3H]-methyllycaconitine, test compound up to 100 μM.
For data set [6] the following is noted: clinical studies, human plasma, cited from earlier work.

Chain of rat α7 NNRs (Q05941 23-502): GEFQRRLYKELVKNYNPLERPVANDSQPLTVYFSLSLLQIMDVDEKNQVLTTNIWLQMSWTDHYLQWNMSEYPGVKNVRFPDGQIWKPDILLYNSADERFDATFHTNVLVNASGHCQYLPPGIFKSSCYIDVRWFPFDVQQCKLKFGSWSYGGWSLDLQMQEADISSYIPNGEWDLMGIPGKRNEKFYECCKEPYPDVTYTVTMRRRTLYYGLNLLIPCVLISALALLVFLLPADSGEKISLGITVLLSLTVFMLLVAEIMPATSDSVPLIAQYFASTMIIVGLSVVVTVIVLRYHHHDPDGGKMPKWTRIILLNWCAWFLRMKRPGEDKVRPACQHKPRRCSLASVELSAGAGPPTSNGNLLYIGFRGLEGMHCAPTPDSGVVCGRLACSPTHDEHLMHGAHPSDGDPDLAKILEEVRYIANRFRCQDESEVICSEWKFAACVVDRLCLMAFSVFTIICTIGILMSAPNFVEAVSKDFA
Chain of α4β2 nicotinic receptors stably transfected in SH-EP1 cells (P43681 29-627 limits assumed): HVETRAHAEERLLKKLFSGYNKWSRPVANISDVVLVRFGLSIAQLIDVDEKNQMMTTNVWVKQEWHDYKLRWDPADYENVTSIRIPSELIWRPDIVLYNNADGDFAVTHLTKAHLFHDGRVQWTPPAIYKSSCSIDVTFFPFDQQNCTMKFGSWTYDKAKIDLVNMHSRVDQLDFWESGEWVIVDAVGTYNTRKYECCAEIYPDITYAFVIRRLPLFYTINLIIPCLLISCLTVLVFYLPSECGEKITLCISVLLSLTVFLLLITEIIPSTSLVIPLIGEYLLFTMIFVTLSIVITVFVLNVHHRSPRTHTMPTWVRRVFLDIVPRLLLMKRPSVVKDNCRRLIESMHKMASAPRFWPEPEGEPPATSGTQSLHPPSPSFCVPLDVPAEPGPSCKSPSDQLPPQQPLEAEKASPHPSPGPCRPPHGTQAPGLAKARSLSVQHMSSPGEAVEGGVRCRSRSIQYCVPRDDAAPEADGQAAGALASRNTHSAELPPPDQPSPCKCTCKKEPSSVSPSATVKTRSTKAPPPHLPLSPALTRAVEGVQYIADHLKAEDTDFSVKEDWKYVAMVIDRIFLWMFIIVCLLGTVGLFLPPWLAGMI
Chain of α4β2 nicotinic receptors stably transfected in SH-EP1 cells (P17787 26-502): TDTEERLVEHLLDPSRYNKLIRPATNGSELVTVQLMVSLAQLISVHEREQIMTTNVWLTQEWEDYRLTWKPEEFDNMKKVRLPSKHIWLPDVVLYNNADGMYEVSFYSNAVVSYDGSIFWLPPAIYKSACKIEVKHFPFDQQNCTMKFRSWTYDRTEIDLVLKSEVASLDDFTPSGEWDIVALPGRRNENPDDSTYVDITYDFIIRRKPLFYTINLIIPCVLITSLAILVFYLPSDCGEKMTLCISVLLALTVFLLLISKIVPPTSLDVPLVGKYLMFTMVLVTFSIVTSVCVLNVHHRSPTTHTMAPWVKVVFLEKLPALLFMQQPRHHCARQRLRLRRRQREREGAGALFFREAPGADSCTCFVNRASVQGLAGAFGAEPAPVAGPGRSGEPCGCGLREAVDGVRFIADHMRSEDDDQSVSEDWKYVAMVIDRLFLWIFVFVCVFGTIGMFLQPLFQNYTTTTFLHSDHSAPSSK
Chain of recombinant α4β2 NNRs expressed in SH-EP1 cells (P43681 29-627 limits assumed): as the sequence (P43681 29-627 limits assumed) above
Chain of recombinant α4β2 NNRs expressed in SH-EP1 cells (P17787 26-502): as the sequence (P17787 26-502) above
Chain of α7 NNRs (Q05941 23-502): as the sequence (Q05941 23-502) above
Chain of α7 NNR binding sites in rat hippocampal preparations (Q05941 23-502): as above
Chain of presynaptic naturally-expressed α4β2-containing nicotinic receptors (P09483 31-630): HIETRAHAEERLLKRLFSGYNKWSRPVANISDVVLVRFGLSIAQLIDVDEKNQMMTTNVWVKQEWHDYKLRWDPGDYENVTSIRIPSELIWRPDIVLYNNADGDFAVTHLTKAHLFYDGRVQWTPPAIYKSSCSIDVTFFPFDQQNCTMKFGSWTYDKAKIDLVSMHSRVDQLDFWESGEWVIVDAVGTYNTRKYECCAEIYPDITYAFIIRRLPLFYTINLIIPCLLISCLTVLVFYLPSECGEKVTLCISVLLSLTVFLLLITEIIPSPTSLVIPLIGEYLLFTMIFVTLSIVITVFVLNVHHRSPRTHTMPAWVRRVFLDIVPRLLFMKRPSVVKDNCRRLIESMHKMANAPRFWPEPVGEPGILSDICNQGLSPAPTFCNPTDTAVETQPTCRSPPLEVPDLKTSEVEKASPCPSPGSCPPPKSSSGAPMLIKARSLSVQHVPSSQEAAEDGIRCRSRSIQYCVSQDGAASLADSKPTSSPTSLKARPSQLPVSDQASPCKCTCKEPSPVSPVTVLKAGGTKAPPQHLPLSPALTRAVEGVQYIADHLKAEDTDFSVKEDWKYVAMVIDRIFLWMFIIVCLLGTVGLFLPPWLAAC
Chain of presynaptic naturally-expressed α4β2-containing nicotinic receptors (P12390 25-500): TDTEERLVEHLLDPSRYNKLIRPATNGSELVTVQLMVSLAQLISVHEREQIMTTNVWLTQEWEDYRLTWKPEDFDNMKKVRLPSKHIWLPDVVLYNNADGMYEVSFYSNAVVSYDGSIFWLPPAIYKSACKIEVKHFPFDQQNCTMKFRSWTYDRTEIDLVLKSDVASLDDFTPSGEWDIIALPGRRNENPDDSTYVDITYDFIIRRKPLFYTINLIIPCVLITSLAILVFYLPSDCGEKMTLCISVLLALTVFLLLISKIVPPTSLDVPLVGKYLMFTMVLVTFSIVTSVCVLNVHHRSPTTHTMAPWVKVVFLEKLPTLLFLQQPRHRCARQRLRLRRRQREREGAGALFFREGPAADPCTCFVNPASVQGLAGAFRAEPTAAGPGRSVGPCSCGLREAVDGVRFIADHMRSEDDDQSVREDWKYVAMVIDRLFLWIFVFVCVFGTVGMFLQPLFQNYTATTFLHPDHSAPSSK

For the compound `Clc1ccc2c(c1)N=C(N1CCNCC1)c1ccccc1N2` [N-desmethylclozapine], the concentration for half-maximal inhibition (IC50) (usually the concentration at which inhibition is half-maximal) worked out at 2.1 µM in data set [1], 3.2 µM on rat α7 NNRs, 2.2 µM against α7 NNRs and 2.1 µM in data set [4]. Also, in data set [1], the “extent of inhibition of nicotine-evoked 86Rb+ efflux” value is “completely inhibited”. For the same compound, the “extent of inhibition of TC-1827-evoked 86Rb+ efflux” value in data set [1] is “fully inhibited”. Further, the “effect on basal 86Rb+ efflux” value in data set [1] is listed as “None of these compounds affected the basal”. For the same compound, the activity at 6 µM at rat α7 NNRs (read-out: maximal ACh net charge response in the presence of inhibitor) was found to be 37.5 ± 5%. In addition, the “pseudo-Hill slope (nH)” value on rat α7 NNRs is −1.3. In data set [2], the “inhibition of [3H]-nicotine binding” value was “None of the compounds tested inhibited binding”. Besides, the “Max. Plasma Levels” value was 1.9 µM in data set [3] (ref Dumortier et al., 1998); 1.3 µM in data set [3] (ref Flanagan et al., 2003); 2.3 µM in data set [3] (ref Wong et al., 2006); 580 ng/mL in data set [6] (ref Dumortier et al., 1998); 420 ng/mL in data set [6] (ref Flanagan et al., 2003); 720 ng/mL in data set [6] (ref Wong et al., 2006). The “inhibition of [3H]-methyllycaconitine binding” value in data set [5] is reported as “None of the compounds tested inhibited binding”.

`CN(C)CCCN1c2ccccc2Sc2ccc(Cl)cc21` [Chlorpromazine, chlorpromazine]: the half-maximal inhibitory concentration (IC50) against rat α7 NNRs worked out at 9.1 µM; on α7 NNRs it was 1.7 µM; in data set [4] it was 2.8 µM. At rat α7 NNRs, the “pseudo-Hill slope (nH)” value is −0.84. Also, in data set [2], the “inhibition of [3H]-nicotine binding” value is “None of the compounds tested inhibited binding”. Moreover, the “Max. Plasma Levels” value was 2.4 µM in data set [3] (ref Chetty and Miller, 2001); 1.2 µM in data set [3] (ref Chetty et al., 1996); 839 ng/mL in data set [6] (ref Chetty and Miller, 2001); 422 ng/mL in data set [6] (ref Chetty et al., 1996); 124 ng/mL in data set [6] (ref Della Corte et al., 1993). The “inhibition of [3H]-methyllycaconitine binding” value in data set [5] is on record as “None of the compounds tested inhibited binding”.

In the case of `O=C(CCCN1CCC(O)(c2ccc(Cl)cc2)CC1)c1ccc(F)cc1` [Haloperidol, haloperidol], in data set [1], the “extent of inhibition of nicotine-evoked 86Rb+ efflux” value is given as “completely inhibited” and the “effect on basal 86Rb+ efflux” value was “None of these compounds affected the basal”. Besides, the “inhibition of [3H]-nicotine binding” value in data set [2] is on record as “None of the compounds tested inhibited binding”. The “Max. Plasma Levels” value in data set [3] (ref Roh et al., 2001) is 0.23 µM. Further, the “Max. Plasma Levels” value in data set [6] (ref Roh et al., 2001) is 86 ng/mL.

Take `OCCOCCN1CCN(C2=Nc3ccccc3Sc3ccccc32)CC1` [Quetiapine, quetiapine]: the “Max. Plasma Levels” value is 1.3 µM in data set [3] (ref Aichhorn et al., 2006); 2.7 µM in data set [3] (ref Grimm et al., 2006); 0.24 µM in data set [3] (ref Lin et al., 2004); 491 ng/mL in data set [6] (ref Aichhorn et al., 2006); 1042 ng/mL in data set [6] (ref Grimm et al., 2006); 91 ng/mL in data set [6] (ref Lin et al., 2004). For the same compound, the “Max. Plasma Levels” value in data set [6] (ref Tauscher-Wisniewski et al., 2002) is 1454 ng/mL.

As to `CN1CCN(C2=Nc3cc(Cl)ccc3Nc3ccccc32)CC1` [Clozapine, clozapine], in data set [1], the “extent of inhibition of nicotine-evoked 86Rb+ efflux” value is recorded as “completely inhibited”. In data set [1], the “extent of inhibition of TC-1827-evoked 86Rb+ efflux” value is given as “fully inhibited”. For the same compound, the “effect on basal 86Rb+ efflux” value in data set [1] was “None of these compounds affected the basal”. Also, in data set [2], the “inhibition of [3H]-nicotine binding” value is listed as “None of the compounds tested inhibited binding”. Besides, the “Max. Plasma Levels” value is 1.8 µM in data set [3] (ref Diaz et al., 2005); 4.0 µM in data set [3] (ref Dumortier et al., 1998); 3.3 µM in data set [3] (ref Perry et al., 1991); 5.9 µM in data set [3] (ref Wong et al., 2006); 574 ng/mL in data set [6] (ref Diaz et al., 2005); 1310 ng/mL in data set [6] (ref Dumortier et al., 1998). Also, the “Max. Plasma Levels” value in data set [6] (ref Freudenreich et al., 1996) is listed as 880 ng/mL; in data set [6] (ref Perry et al., 1991), 1088 ng/mL; in data set [6] (ref Wong et al., 2006) it was 1920 ng/mL.
